The subject of one assay is rat âgé. Put plainly: Chronic treatment of the aged rat (insulin resistance, hyperinsulinaemia, raised blood pressure): blood pressure. Type of assay: in vivo. The method, then: 2- Etude du traitement chronique du rat âgé
Au cours du vieillissement, une insulino-résistance apparaît, accompagnée d'une hyperinsulinémie et d'une élévation de la pression artérielle (cf tableau 1 ci-après).
Le traitement par la d-fenfluramine à la dose de 2,5 mg/kg 2 fois par jour pendant 3 semaines, diminue la pression artérielle du rat âgé de 12.10² Pa sans modifier celle du rat jeune.

The conditions of assay [1]: from cited literature (Storlien et al., Brindley et al., Carr et al., Duhault et al., Pestell et al.); cited from earlier work.
The test system of a further assay is réactivité vasculaire. Put plainly: Vascular reactivity after chronic treatment of the aged rat: maximum contraction to serotonin and ADP. As to conditions: 12-month rats treated with d-fenfluramine. Type of assay: in vivo. An excerpt:
Cet effet est relié à une normalisation de la réactivité vasculaire, en particulier à la sérotonine et à l'ADP (cf tableau 2 ci-après).

In the case of `CC(Cc1cccc(C(F)(F)F)c1)NCCOC(=O)c1ccccc1` (centres unmarked) [benfluorex], the “Blood pressure and vascular reactivity of the aged rat (results compared with d-fenfluramine)” value in the assay on rat âgé (50 mg/kg, 5 times per day) is “résultats analogues”.

As for `CCNC(C)Cc1cccc(C(F)(F)F)c1` (racemic) [dl fenfluramine], the “insulino-résistance et hyperinsulinémie basale” value in assay [1] is recorded as “capables de réduire l'insulino-résistance et l'hyperinsulinémie basale”.

Regarding `CCN[C@@H](C)Cc1cccc(C(F)(F)F)c1` [d-fenfluramine], the “Maximum de contraction Sérotonine” value in the assay on réactivité vasculaire (expressed relative to KCl = 100 % contraction) is 145%. Also, the “Maximum de contraction ADP” value with réactivité vasculaire (expressed relative to phenylephrine = 100 % contraction) is given as 66%. The “pression artérielle du rat jeune” value in the assay on rat âgé (young rat, 2,5 mg/kg twice daily for 3 weeks) is “sans modifier”.

(Values after EP0545805A1, “Use of D-fenfluramine and fenfluramine derivatives in the treatment of hypertension in insulin-resistant patients” (ADIR ET COMPAGNIE, priority 1991, dated 1993).)
